Experimental data reported in US20220370586A1, “METHOD OF GENERATING ACTIVATED T CELLS FOR CANCER THERAPY” (Cedars-Sinai Medical Center, priority 2019, published 2022).

How the values were obtained:
T effector cells = assay: T cell suppression assay (CFSE proliferation of T effector cells, FACS); type: cell-based, human; details: for effect on T effector cell proliferation (in words): T cell activation by antigen presenting cells, with or without Tregs; for increase of T cell expansion compared to T control group (without molecule): with T-reg (1:1)
Excerpt: PBMC was isolated (Ficoll, GE Healthcare) from the WBC cone collected from healthy platelet donor. Cells were washed and passed through 40 um cell strainer before being stained with T cell surface antibodies. Then cells were put on cell sorter (BD FACSARIA III). Specific cell populations were collected as follows: CD4^+CD25^− cells (T effector cells), CD4^+CD25^+CD45RA^+CD127^− cells (T regulatory cells) and CD3^− cells (serve as Antigen Presenting Cells, APC). T effector cells were labeled with CellTrace CFSE (Invitrogen), heavily washed before cell number counting. Effector cells and T-regs were then mixed together at 1:1 ratio in culture media (RPMI 1640, 10% FBS, Pen-Strep and 1% NEAA) which enhanced with anti-CD3 (3 ug/ml) anti-CD28 (2 ug/ml) antibodies. APCs were treated with Mitomycin (50 ug/ml) for 30 minutes at 37° C., 5% CO2 incubator, then added to culture mix (APC:T-eff 2:1) as a proliferation co-stimulator. Cell mixture was incubated at 37° C., 5% CO2 for 6 days before being re-stained with T cell surface markers (CD4, CD25) and sent for FACS analysis (FIGS. 1A-1B, 4 and 5).
Molecule 11702 and 11704 were added to treat groups respectively at a concentration gradient of 5 uM, 25 uM and 50 uM.
FACS results focus on CD4^+CD25^−CFES^+ population (T effector cells). […] As T cells proliferate and replicate, CFSE peaks extend successively to left and become less fluorescent (toward negative range). The more cell population moves to left, the stronger the proliferation.

B16 melanoma = B16 melanoma implantation in C57 BL mice; type: in vivo
Protocol: After implantation of B16 melanoma, C57 BL mice underwent treatment with 11702 GITR agonist or DMSO control. (A) Animals lived longer after GITR agonist intraperitoneal 30 mg/kg treatment twice per week (p=0.0333, log rank). (B) Tumor volume was inhibited in 11702 treated animals (p<0.05, Anova).
After implantation of B16 melanoma, C57 BL mice underwent treatment with 11702 GITR agonist or DMSO control. […] (B) Tumor volume was inhibited in 11702 treated animals (p<0.05, Anova).

Row | Compound | effect on T effector cell proliferation (in words) (T effector cells) | most effective dose to accelerate T cell proliferation (T effector cells; T effector without T-reg) | increase of proliferated population compared to base line (T effector cells; T effector without T-reg, 5 uM) | increase of proliferated population compared to base line (T effector cells; T effector without T-reg, 25 uM) | increase of proliferated population compared to base line (T effector cells; T effector without T-reg, 50 uM) | increase of T cell expansion compared to T control group (without molecule) (T effector cells; 5 uM) | increase of T cell expansion compared to T control group (without molecule) (T effector cells; 25 uM) | increase of T cell expansion compared to T control group (without molecule) (T effector cells; 50 uM) | survival (B16 melanoma; intraperitoneal 30 mg/kg twice per week vs DMSO control, p=0.0333, log rank) | PD-1 expression on activated CD4+ and effector memory CD8+ tumor infiltrating lymphocytes (B16 melanoma; vs DMSO control) | activated CD4+ cells among tumor infiltrating lymphocytes (FACs) (B16 melanoma; vs DMSO control) | effector memory cytotoxic CD8+ T cells among tumor infiltrating lymphocytes (FACs) (B16 melanoma; vs DMSO control) | Tumor volume (B16 melanoma; vs DMSO control, p<0.05, Anova) | inhibition at 50 µM (T effector cells; Homo sapiens, T-cell, T effector without T-reg, 50 uM, read-out: inhibition (decrease) of T cell proliferation) | inhibition at 25 µM (T effector cells; Homo sapiens, T-cell, with T-reg, 25 uM, read-out: inhibition (decrease) of T cell expanding) | effect on T effector cells (T effector cells; T effector without T-reg, 5 uM) | effect on T effector cells (T effector cells; T effector without T-reg, 25 um) | decrease of proliferation compared to base line (T effector cells; with T-reg, 50 uM)
1 | OCC1OC(Nc2ccc(-c3ccc(NC4CC(O)C(CO)O4)cc3)cc2)CC1O (stereo not shown) [RMGL171102] | highly active | around 25 uM | 47.4% | 61.7% | 52% | 34.4% | 96.7% | 107.1% | lived longer | increased PD-1 expression | increased presence | increased | inhibited |  |  |  |  | 
2 | O=C(CCCCC(=O)NN=Cc1cccc(O)c1)NN=Cc1cccc(O)c1 [RMGL171104] | dose dependent retraction of T effector cells |  |  |  |  |  |  |  |  |  |  |  |  | 39.1% | 33.9% | no significant effect | no significant effect | 55.9%
